The source of these data is ChEMBL document CHEMBL5647694, “Novel orally bioavailable EZH1/2 dual inhibitors with greater antitumor efficacy than an EZH2 selective inhibitor” (Cancer Sci, 2017).

Each structure is given as a SMILES string. Calls of active or inactive are those of the source. No cut-off for these calls is given here.

Series [1] addresses Tyrosine-protein kinase Tec (Homo sapiens) (UniProt P42680). Put plainly: Inhibition of N-terminal GST-tagged human TEC catalytic domain (359 to 631 residues) expressed in baculovirus-infected Sf21 cells using Srctide as substrate at 1 uM in presence of ATP by Mobility shift assay.
In the next series the test system is Mus musculus. The series can be described thus: In vivo inhibition of EZH1/2 in CB17/Icr-Prkdcscid/CrlCrlj mouse xenografted with human KARPAS-422 cells assessed as decrease in H3K27me3 level in tumor at 3.1 to 50 mg/kg, po BID for 14 days and measured 1 day after cessation of drug dosing. It counts as functional, organism-based. The settings on record: dose 3.1-50 mg/kg, time 14.0 day.

Series [2] is described as follows: Cmax in Crl:CD Sprague-Dawley rat at 100 mg/kg, po by LC/MS/MS analysis. Format: ADME, organism-based. The settings on record: in vivo.
The nature of series [3]: Mean AUC (0-24 hrs) in Crl:CD Sprague-Dawley rat at 100 mg/kg, po administered daily for 14 days by LC/MS/MS analysis. Format: ADME, organism-based. The settings on record: in vivo, time 14 day.
The nature of series [4]: Toxicity in Crl:CD Sprague-Dawley rat assessed as decrease in food consumption at 100 mg/kg, po administered daily for 14 days. The settings on record: in vivo, 336 h, time 14 day. It counts as organism-based.
Series [5] in a line: Toxicity in Crl:CD Sprague-Dawley rat assessed as MCHC level in blood at 100 mg/kg, po administered daily for 14 days (reference value: 32.7 +/-0.05%). Format: organism-based. The settings on record: in vivo, 336 h, time 14 day.
Series [6] can be described thus: Toxicity in Crl:CD Sprague-Dawley rat assessed as neutrophil count in blood at 100 mg/kg, po administered daily for 14 days (reference value: 1.73+/-0.276 10^3/uL). The settings on record: in vivo, 336 h, time 14 day. It counts as organism-based.
A short description of series [7]: Toxicity in Crl:CD Sprague-Dawley rat assessed as inorganic phosphorus level in blood at 100 mg/kg, po administered daily for 14 days (reference value: 6.02+/-0.628 mg/dL). The settings on record: in vivo, 336 h, time 14 day. Format: organism-based.
The next series has as its system MOLT-4. The series can be described thus: Antitumor activity against human MOLT-4 cells assessed as cell growth inhibition treated for 10 to 15 days. It counts as functional. The settings on record: time 10-15 day.
The subject of a further series is P3HR-1. The series can be described thus: Antitumor activity against human P3HR-1 cells assessed as cell growth inhibition treated for 10 to 15 days. The settings on record: time 10-15 day. It counts as functional.
Series [8] deals with Histone-lysine N-methyltransferase, H3 lysine-79 specific (Homo sapiens, UniProt Q8TEK3). The series can be described thus: Inhibition of human DOT1L using Nucleosomes and [3H]SAM as substrate incubated for 30 mins to 1 hr by HotSpot kinase assay.
Series [9] concerns the target Protein arginine N-methyltransferase 1 (Homo sapiens, UniProt Q99873). Put plainly: Inhibition of human PRMT1 using Histone H4 and [3H]SAM as substrate incubated for 30 mins to 1 hr by HotSpot kinase assay.
Series [10] has as its target Protein arginine N-methyltransferase 6 (Homo sapiens, UniProt Q96LA8). Put plainly: Inhibition of human PRMT6 using Histone H3 and [3H]SAM as substrate incubated for 30 mins to 1 hr by HotSpot kinase assay.
Series [11] concerns the target Ephrin type-B receptor 2 (Homo sapiens) (UniProt P29323). Put plainly: Inhibition of N-terminal GST-fused human EPHB2 cytoplasmic domain (581 to 987 residues) expressed in baculovirus-infected Sf21 cells using Blk/Lyntide as substrate at 1 uM in presence of ATP by Mobility shift assay.
Series [12] has as its target Serine/threonine-protein kinase D2 (Homo sapiens) (UniProt Q9BZL6). Put plainly: Inhibition of N-terminal GST-fused full length human PKD2 (1 to 878 residues) expressed in baculovirus expression system using GS peptide as substrate at 1 uM in presence of ATP by Mobility shift assay.
Series [13] has as its target Ribosomal protein S6 kinase alpha-2 (Homo sapiens) (UniProt Q15349). The series can be described thus: Inhibition of N-terminal GST-fused human full length RSK3 (1 to 733 residues) expressed in baculovirus expression system using S6K peptide(N-FL) as substrate at 1 uM in presence of ATP by Mobility shift assay.
Another series relates to REH. Put plainly: Antitumor activity against human REH cells assessed as cell growth inhibition treated for 10 to 15 days. Format: functional. The settings on record: time 10-15 day.
A further series concerns NB-4. The series can be described thus: Antitumor activity against human NB-4 cells assessed as cell growth inhibition treated for 10 to 15 days. It counts as functional. The settings on record: time 10-15 day.
A further series has as its system CA46. Put plainly: Antitumor activity against human CA46 cells assessed as cell growth inhibition treated for 10 to 15 days. Format: functional. The settings on record: time 10-15 day.
The test system of the next series is NAMALVA. Put plainly: Antitumor activity against human NAMALVA cells assessed as cell growth inhibition treated for 10 to 15 days. Format: functional. The settings on record: time 10-15 day.
In another series the test system is ST486. The series can be described thus: Antitumor activity against human ST486 cells assessed as cell growth inhibition treated for 10 to 15 days. The settings on record: time 10-15 day. It counts as functional.
For the next series, the system named is RPMI-8226. Put plainly: Antitumor activity against human RPMI-8226 cells assessed as cell growth inhibition treated for 10 to 15 days. Format: functional. The settings on record: time 10-15 day.
For the next series, the system named is MDA-MB-361. The series can be described thus: Antitumor activity against human MDA-MB-361 cells assessed as cell growth inhibition treated for 10 to 15 days. Format: functional. The settings on record: time 10-15 day.
The test system of the next series is DU-4475. The series can be described thus: Antitumor activity against human DU-4475 cells assessed as cell growth inhibition treated for 10 to 15 days. The settings on record: time 10-15 day. It counts as functional.
The test system of the next series is HCC1395. The series can be described thus: Antitumor activity against human HCC1395 cells assessed as cell growth inhibition treated for 10 to 15 days. The settings on record: time 10-15 day. It counts as functional.
The subject of a further series is HCC1569. The series can be described thus: Antitumor activity against human HCC1569 cells assessed as cell growth inhibition treated for 10 to 15 days. It counts as functional. The settings on record: time 10-15 day.
The next series has as its system HCC1599. The series can be described thus: Antitumor activity against human HCC1599 cells assessed as cell growth inhibition treated for 10 to 15 days. It counts as functional. The settings on record: time 10-15 day.
Another series has as its system MCF7. The series can be described thus: Antitumor activity against human MCF7 cells assessed as cell growth inhibition treated for 10 to 15 days. It counts as functional. The settings on record: time 10-15 day.
A further series has as its system MDA-MB-134-VI. Put plainly: Antitumor activity against human MDA-MB-134-VI cells assessed as cell growth inhibition treated for 10 to 15 days. It counts as functional. The settings on record: time 10-15 day.
The next series has as its system T47D. The series can be described thus: Antitumor activity against human T47D cells assessed as cell growth inhibition treated for 10 to 15 days. Format: functional. The settings on record: time 10-15 day.
The next series has as its system HCT-116. The series can be described thus: Antitumor activity against human HCT-116 cells assessed as cell growth inhibition treated for 10 to 15 days. The settings on record: time 10-15 day. Format: functional.
Another series deals with SW48. The series can be described thus: Antitumor activity against human SW48 cells assessed as cell growth inhibition treated for 10 to 15 days. Format: functional. The settings on record: time 10-15 day.
The next series concerns G-401. Put plainly: Antitumor activity against human G-401 cells assessed as cell growth inhibition treated for 10 to 15 days. Format: functional. The settings on record: time 10-15 day.
A further series relates to TOV112D. The series can be described thus: Antitumor activity against human TOV112D cells assessed as cell growth inhibition treated for 10 to 15 days. It counts as functional. The settings on record: time 10-15 day.
Another series has as its system RMG-I. The series can be described thus: Antitumor activity against human RMG-I cells assessed as cell growth inhibition treated for 10 to 15 days. Format: functional. The settings on record: time 10-15 day.
Series [14] can be described thus: Antitumor activity against human SNU-840 cells assessed as cell growth inhibition treated for 10 to 15 days. It counts as functional. The settings on record: time 10-15 day.
In a further series the test system is PC-3. Put plainly: Antitumor activity against human PC-3 cells assessed as cell growth inhibition treated for 10 to 15 days. Format: functional. The settings on record: time 10-15 day.
A further series relates to NUGC-3. The series can be described thus: Antitumor activity against human NUGC-3 cells assessed as cell growth inhibition treated for 10 to 15 days. It counts as functional. The settings on record: time 10-15 day.
A further series has as its system MKN-45. Put plainly: Antitumor activity against human MKN-45 cells assessed as cell growth inhibition treated for 10 to 15 days. It counts as functional. The settings on record: time 10-15 day.
For another series, the system named is SNU-16. The series can be described thus: Antitumor activity against human SNU-16 cells assessed as cell growth inhibition treated for 10 to 15 days. Format: functional. The settings on record: time 10-15 day.

Chain of Histone-lysine N-methyltransferase, H3 lysine-79 specific (Q8TEK3 whole entry): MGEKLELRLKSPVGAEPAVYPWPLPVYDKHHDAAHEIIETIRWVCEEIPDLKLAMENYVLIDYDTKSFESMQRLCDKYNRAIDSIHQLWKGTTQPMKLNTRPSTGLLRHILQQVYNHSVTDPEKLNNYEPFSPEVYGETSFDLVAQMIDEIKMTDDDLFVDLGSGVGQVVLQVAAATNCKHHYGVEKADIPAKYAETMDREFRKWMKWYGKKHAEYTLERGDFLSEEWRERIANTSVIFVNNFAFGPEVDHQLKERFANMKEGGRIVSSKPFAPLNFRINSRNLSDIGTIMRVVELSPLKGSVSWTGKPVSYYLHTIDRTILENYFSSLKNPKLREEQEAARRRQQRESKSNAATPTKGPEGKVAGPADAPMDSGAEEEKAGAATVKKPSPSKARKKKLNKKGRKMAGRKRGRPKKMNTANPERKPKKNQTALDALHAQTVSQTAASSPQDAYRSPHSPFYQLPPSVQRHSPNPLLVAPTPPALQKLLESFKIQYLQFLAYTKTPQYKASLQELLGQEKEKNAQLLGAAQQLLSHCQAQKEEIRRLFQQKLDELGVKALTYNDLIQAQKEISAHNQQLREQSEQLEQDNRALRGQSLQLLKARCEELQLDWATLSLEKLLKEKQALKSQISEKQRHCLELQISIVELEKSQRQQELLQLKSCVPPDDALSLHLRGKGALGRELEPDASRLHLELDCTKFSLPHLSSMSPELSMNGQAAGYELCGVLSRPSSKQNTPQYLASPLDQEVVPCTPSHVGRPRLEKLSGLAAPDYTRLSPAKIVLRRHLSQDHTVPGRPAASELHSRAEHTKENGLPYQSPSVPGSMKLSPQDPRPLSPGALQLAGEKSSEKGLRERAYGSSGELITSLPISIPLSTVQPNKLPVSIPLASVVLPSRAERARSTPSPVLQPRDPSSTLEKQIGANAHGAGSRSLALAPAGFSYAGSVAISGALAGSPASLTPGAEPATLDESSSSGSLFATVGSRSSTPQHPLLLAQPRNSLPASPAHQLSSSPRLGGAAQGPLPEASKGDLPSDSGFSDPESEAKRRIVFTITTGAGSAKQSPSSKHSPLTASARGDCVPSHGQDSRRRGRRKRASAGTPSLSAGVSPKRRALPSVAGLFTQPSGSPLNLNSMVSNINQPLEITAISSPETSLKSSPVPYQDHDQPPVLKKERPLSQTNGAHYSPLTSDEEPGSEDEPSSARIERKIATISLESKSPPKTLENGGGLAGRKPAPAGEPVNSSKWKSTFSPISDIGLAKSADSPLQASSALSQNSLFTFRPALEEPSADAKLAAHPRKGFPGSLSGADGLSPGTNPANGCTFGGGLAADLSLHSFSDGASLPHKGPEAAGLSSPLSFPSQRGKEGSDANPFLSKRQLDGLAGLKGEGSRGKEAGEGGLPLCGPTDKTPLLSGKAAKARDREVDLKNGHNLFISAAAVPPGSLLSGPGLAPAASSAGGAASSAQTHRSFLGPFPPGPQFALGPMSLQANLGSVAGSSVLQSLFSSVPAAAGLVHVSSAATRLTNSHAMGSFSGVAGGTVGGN
Chain of Ribosomal protein S6 kinase alpha-2 (Homo sapiens) (Q15349 whole entry, the tested form may be a part): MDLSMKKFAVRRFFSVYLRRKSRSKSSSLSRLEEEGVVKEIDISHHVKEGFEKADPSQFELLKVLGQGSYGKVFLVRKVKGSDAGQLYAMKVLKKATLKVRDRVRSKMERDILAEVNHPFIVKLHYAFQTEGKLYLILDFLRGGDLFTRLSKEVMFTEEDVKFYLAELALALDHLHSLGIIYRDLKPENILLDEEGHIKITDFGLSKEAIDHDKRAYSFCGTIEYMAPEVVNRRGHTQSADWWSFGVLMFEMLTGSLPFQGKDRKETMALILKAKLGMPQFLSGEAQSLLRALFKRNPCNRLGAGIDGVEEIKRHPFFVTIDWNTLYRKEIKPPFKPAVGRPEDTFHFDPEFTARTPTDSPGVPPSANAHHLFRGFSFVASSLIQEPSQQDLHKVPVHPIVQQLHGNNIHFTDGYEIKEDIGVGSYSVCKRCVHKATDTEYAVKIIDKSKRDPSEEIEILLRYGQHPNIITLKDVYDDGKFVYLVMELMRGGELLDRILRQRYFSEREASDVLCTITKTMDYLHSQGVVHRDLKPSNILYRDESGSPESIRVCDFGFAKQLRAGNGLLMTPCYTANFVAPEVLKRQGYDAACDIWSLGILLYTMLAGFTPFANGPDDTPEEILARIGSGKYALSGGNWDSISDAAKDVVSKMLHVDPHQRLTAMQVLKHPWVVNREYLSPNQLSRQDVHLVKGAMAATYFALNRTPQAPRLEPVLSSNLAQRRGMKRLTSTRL
Chain of Tyrosine-protein kinase Tec (Homo sapiens) (P42680 whole entry, the tested form may be a part): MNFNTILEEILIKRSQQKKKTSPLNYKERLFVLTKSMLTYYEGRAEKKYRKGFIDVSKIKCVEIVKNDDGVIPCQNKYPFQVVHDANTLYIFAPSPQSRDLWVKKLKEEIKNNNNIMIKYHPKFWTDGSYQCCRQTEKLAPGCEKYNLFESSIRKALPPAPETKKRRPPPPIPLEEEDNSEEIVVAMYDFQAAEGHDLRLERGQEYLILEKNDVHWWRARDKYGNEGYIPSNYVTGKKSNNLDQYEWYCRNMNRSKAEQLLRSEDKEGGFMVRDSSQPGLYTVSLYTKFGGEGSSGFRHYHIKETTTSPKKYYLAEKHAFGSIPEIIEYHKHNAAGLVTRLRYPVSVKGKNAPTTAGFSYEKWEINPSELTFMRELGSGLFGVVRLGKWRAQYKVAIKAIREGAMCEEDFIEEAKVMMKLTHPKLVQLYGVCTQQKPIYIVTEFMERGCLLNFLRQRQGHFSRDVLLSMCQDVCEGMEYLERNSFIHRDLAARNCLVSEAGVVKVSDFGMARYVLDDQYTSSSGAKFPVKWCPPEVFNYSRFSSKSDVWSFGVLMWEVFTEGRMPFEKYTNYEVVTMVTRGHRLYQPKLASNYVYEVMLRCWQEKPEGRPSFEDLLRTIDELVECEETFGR
Chain of Protein arginine N-methyltransferase 1 (Q99873 whole entry): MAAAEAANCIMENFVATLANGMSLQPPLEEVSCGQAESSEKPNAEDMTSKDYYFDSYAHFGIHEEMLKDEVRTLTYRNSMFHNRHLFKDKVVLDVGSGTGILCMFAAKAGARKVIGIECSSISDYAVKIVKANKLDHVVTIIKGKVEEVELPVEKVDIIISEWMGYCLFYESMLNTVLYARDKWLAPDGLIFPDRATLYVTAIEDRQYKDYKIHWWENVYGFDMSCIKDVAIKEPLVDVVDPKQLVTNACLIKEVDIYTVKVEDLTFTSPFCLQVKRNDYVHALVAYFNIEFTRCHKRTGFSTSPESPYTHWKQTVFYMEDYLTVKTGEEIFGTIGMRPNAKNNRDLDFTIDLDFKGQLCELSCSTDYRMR
Chain of Ephrin type-B receptor 2 (Homo sapiens) (P29323 whole entry, the tested form may be a part): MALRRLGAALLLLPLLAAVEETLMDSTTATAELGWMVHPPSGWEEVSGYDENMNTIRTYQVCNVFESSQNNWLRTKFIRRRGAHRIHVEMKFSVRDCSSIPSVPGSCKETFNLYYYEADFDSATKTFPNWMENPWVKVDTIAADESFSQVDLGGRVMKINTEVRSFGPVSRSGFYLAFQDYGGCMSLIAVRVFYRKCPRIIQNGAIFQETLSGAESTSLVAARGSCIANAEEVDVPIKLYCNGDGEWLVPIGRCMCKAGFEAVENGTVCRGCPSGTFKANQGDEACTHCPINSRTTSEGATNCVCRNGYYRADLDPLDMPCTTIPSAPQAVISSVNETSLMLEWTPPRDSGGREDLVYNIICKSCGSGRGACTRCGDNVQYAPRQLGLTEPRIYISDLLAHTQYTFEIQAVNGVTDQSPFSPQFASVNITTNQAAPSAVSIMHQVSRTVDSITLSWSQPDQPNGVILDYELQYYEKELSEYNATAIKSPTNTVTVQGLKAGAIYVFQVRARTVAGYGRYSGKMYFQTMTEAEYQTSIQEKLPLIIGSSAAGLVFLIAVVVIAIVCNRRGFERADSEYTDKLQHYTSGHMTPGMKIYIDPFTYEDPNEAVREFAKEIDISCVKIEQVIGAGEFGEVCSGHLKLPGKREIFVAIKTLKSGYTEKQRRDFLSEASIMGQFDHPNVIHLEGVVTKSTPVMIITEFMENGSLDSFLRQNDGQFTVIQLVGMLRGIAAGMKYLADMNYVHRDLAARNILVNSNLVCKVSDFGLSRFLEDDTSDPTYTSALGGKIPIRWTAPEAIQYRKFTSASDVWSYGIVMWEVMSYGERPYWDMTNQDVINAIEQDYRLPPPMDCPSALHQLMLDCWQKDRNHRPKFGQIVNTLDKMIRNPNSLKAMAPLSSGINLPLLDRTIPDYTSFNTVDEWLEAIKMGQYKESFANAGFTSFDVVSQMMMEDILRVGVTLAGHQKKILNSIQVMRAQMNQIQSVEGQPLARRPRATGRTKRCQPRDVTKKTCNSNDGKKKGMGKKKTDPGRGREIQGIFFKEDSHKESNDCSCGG
Chain of Protein arginine N-methyltransferase 6 (Q96LA8 whole entry, the tested form may be a part): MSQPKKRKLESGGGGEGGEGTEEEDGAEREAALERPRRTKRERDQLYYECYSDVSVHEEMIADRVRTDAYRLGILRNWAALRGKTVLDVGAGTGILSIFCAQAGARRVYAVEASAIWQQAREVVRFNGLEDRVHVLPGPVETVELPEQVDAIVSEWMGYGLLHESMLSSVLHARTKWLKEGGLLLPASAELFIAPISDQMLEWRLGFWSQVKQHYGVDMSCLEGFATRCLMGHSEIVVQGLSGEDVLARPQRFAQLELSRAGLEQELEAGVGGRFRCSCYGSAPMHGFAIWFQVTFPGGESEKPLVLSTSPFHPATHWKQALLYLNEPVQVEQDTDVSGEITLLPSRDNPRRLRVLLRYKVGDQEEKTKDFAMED

In the case of `Cc1cc(C)c(CNC(=O)c2cc(Br)c3c(c2C)O[C@@](C)([C@H]2CC[C@H](N(C)C)CC2)O3)c(=O)[nH]1`, the inhibition in series [1] is -10%. For the same compound, the inhibition result in the series on Mus musculus is “Active”. This compound returned a Cmax in series [2] of 2150 nM. In series [3], this compound yielded an AUC at 336 h of 27.9 µM·h. Further, the Activity result in series [4] is “Toxic”; in series [5], 32.5%; in [6], 0.583 10^3 /uL; in series [7] it was 5.97 mg/dL.

In the case of `Cc1cc(C)c(CNC(=O)c2cc(Cl)c3c(c2C)O[C@@](C)([C@H]2CC[C@H](N(C)C)CC2)O3)c(=O)[nH]1` [VALEMETOSTAT], the GI50 was 120 nM in the series with MOLT-4; 14.3 nM in the series on P3HR-1; greater than 1000 nM in the series with REH; greater than 1000 nM in the series with NB-4; 296 nM in the series on CA46; greater than 1000 nM in the series with NAMALVA. In addition, the GI50 in the series with ST486 was greater than 1000 nM; in the series with RPMI-8226, 1.91 nM; in the series with MDA-MB-361, 109 nM; in the series on DU-4475 it was greater than 1000 nM; in the series on HCC1395 it was greater than 1000 nM; in the series with HCC1569 it was greater than 1000 nM. Further, the concentration for 50% growth inhibition (GI50) with HCC1599, with MCF7, in the series with MDA-MB-134-VI, in the series with T47D, in the series with HCT-116 and in the series with SW48 was greater than 1000 nM each time. Also, the GI50 was 17.7 nM with G-401; 15.4 nM with TOV112D; greater than 1000 nM in the series with RMG-I; greater than 1000 nM in series [14]; greater than 1000 nM in the series on PC-3; 920 nM with NUGC-3. Further, the concentration for 50% growth inhibition (GI50) in the series with MKN-45 and in the series with SNU-16 was greater than 1000 nM each time. In addition, the concentration for half-maximal inhibition (IC50) in series [8], in [9] and in series [10] was 100 µM in each case. The inhibition is -6.2% in [11], -4.7% in series [12] and -3.9% in series [13].

Broadly, the inhibition is the relative decrease from the control value, in per cent. The Cmax is the maximum level reached in the sampled fluid or tissue. What is called AUC is concentration integrated over time. Read a high AUC as high exposure. Usually GI50 stands for the concentration that inhibits growth by half. For orientation: IC50 means the point on the concentration scale where inhibition reaches its midpoint.
